pIC50: −log10 of the molar value. Entries after “also recorded” stand apart in the source; their conditions may differ.
Assays:
[1] = target: T1, TLR3 (Mus musculus, UniProt Q99MB1); assay: TLR3-mediated TNF-α secretion (poly I:C), ELISA; assay type: cell-based, murine; conditions: RAW 264.7, 10 or 20 μM, poly I:C 24 hours
T1 construct: endogenous in cells; host or cells: RAW 264.7
T1 sequence (Q99MB1 26-905): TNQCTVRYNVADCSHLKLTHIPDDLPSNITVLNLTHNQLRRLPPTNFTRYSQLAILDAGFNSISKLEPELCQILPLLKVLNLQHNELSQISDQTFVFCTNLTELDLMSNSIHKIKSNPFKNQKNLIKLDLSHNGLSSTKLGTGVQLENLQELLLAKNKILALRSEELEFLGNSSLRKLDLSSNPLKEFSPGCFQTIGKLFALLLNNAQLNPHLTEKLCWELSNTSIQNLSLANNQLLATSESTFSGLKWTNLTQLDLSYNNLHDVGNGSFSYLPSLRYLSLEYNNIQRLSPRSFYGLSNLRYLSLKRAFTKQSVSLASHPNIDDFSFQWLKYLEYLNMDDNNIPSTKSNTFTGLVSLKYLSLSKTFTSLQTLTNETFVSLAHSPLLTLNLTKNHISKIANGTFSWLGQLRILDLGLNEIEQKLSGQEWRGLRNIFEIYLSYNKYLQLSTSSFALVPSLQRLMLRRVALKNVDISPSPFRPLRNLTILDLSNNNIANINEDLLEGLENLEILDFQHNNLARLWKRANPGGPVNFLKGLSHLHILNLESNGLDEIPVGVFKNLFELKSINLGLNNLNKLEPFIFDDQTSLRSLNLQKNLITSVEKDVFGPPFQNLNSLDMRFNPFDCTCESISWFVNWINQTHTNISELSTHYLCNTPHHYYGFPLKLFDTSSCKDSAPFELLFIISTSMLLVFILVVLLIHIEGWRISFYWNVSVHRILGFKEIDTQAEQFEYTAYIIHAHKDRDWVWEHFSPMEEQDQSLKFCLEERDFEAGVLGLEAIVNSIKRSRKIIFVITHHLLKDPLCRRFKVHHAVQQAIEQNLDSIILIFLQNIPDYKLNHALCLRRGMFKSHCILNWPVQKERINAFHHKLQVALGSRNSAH
Method: (§1) Agonists specific to TLR1/TLR2 (Pam3CSK4), TLR2/TLR6 (FSL-1), TLR3 (Poly I:C), TLR7 (imiquimod), and TLR8 (TL8-506) were purchased from InvivoGen Ltd. (Hong-Kong, China), and a TLR4-specific agonist (LPS from E. coli O111:B4) was purchased from Sigma-Aldrich, Inc. For TLR9-specific stimulation, class C CpG-ODN (ODN2395, 5′-TCGTCGTTTTCGGCGCGCGCCG-3′) having full phosphorothioate backbone modification was synthesized (Bioneer, Inc., Daejeon, Korea). All TLR agonists were dissolved in deionized water and applied to a culture media for TLR activation. The cells were treated with test compounds or a control medium for 1 hour, and then stimulated with a TLR agonist for 4 hours, or 24 hours in the case of poly(I:C), and the cytokine secretion was monitored.
RAW 264.7 or differentiated THP-1 cell lines were seeded onto a 96-well culture plate at a density of 2×10^4 cells/well. The cells were treated with test compounds for 1 hour followed by the stimulation with TLR agonists for 4 hours. The supernatant was transferred to pre-coated assay plates, and the secretion levels of mouse and human TNF-α were measured by respective ELISA kits (Invitrogen, Carlsbad, CA, USA). […] Absorbance was measured by a microplate reader spectrophotometer (Molecular Devices, Inc., San Jose, CA, USA), and data was interpolated from a standard curve using SoftMax Pro 5.3 software (Molecular Devices, Inc.). […]

[2] = target: T2, TLR9 (Mus musculus, UniProt Q9EQU3); assay: TLR9-mediated TNF-α secretion (ODN2395 stimulation), ELISA; assay type: cell-based, murine
T2 construct: endogenous in cells; host or cells: RAW 264.7
T2 sequence (Q9EQU3 26-1032): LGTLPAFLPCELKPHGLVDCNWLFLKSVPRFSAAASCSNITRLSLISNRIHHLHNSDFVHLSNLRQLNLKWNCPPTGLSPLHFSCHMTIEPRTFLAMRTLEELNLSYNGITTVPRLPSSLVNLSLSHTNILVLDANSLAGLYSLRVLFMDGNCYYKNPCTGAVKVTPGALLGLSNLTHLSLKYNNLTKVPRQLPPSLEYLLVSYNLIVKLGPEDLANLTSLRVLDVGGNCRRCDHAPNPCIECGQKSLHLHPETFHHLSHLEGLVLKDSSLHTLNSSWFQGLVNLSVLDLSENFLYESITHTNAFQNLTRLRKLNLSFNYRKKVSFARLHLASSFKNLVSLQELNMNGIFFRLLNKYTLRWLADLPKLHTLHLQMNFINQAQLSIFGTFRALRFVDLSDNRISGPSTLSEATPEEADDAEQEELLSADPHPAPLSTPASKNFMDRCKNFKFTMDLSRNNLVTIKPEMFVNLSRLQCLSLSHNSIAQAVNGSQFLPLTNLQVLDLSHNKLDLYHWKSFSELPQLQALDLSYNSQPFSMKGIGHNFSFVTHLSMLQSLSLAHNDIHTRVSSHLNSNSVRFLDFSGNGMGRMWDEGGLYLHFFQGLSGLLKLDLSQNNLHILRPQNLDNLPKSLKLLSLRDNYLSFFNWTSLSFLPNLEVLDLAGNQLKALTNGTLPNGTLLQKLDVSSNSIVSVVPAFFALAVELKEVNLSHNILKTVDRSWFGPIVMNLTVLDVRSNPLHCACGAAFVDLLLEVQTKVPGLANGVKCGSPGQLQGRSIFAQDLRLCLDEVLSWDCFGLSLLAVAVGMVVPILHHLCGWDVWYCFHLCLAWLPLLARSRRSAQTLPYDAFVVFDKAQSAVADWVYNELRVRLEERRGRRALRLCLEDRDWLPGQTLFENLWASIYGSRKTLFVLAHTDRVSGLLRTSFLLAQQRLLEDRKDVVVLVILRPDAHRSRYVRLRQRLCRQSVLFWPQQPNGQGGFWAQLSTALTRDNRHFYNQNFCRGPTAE
Method: as §1
RAW 264.7 or differentiated THP-1 cell lines were seeded onto a 96-well culture plate at a density of 2×10^4 cells/well. The cells were treated with test compounds for 1 hour followed by the stimulation with TLR agonists for 4 hours. The supernatant was transferred to pre-coated assay plates, and the secretion levels of mouse and human TNF-α were measured by respective ELISA kits (Invitrogen, Carlsbad, CA, USA). All experiments were performed according to the manufacturer's instructions. Absorbance was measured by a microplate reader spectrophotometer (Molecular Devices, Inc., San Jose, CA, USA), and data was interpolated from a standard curve using SoftMax Pro 5.3 software (Molecular Devices, Inc.).
In order to evaluate the antagonistic effect of each compound on TLR7/TLR9 through ELISA (enzyme-linked immunosorbent assay), RAW 264.7 cells were pretreated with the eight compounds followed by the stimulation with a TLR7-specific agonist (imiquimod, 3.61 μM) or with a TLR9-specific agonist (ODN2395, 0.5 μM). […] Since the two ligands had no agonistic effect per se (FIG. 3B), the increased cytokine production may be due to cell activation (or non-specific cellular stress) by co-treatment. Consequently, TIC10 was selected as the most suitable lead for further optimization to improve the inhibitory potency against both TLR7 and TLR9.

TLR3-mediated TNF-α secretion [1]: moderately reduced
TLR9-mediated TNF-α secretion ([2]; RAW 264.7, 10 or 20 μM, ODN2395 (receptor specificity, FIG. 6)): moderately reduced
pIC50 ([2]; RAW 264.7, ODN2395 (FIG. 4C)): 5.17
SMILES: COc1ccc(CNc2ncc(-c3ccc4c(c3)OCO4)n2C)c(OC)c1 [TIC10-7, 5-(2H-1,3-benzodioxol-5-yl)-N-[(2,4-dimethoxyphenyl)methyl]-1-methyl-1H-imidazol-2-amine]
inhibitory efficacy on TLR9-mediated TNF-α secretion ([2]; RAW 264.7, 10 or 50 μM, ODN2395 (FIG. 4A)): improved inhibitory efficacy compared to TIC10; also recorded: significant reduction
